Measured values taken from patent US9011925B2, “Method for preparing polysaccharide nanocomposite particles and uses of the same” (China Medical University, priority 2011, dated 2015).
Converted amounts (≈) assume the structure as drawn.

Tests used:
[1] = Surface potential analysis (Zetasizer, DLS); format: physicochemical; settings: diluted 50-folds with water, sonicated 1 hour
Protocol: [Surface Potential Analysis]
The samples were diluted 50-folds with water, and sonicated for 1 hour by using an ultrasonic vibration machine. Then, the samples dissolved in water were analyzed by using a Zetasizer machine (Malvern ZS90) based on the principle of dynamic light scattering (DLS) to observe the surface potential and particle size distribution of the particles.

[2] = tested on: Colo 205 human rectum tumor cells; test: Cytotoxicity assay (MTT); format: cell-based; settings: colo 205 cells, 72th hour, read-out: 1050 (50% concentration of inhibition)
Protocol: Colo 205 human rectum tumor cells were inoculated in a 24-well culture dish (1×10^4 cells/well), and incubated in an incubator at 37° C. under 5% CO2 for 24 hours. Then, the active component (KCY-Tai 1 and KCY-Tai 2) or polysaccharide nanocomposite particles (KCY-Tai 1-CNPs and KCY-Tai 2-CNPs 2) with different concentrations (0.39 to 12.5 μg/ml) was respectively added into the culture dish, and the cells were incubated for 24, 72, and 120 hours. The cells were washed with 1×PBS twice. MTT (3-(4,5-dimethyl thiazole-2-yl)-2,5-diphenyl tetrazolium bromide) (0.5 mg/ml) was added to the culture dish (200 μl/well), and the dish was placed in an incubator at 37° C. under 5% CO2. After incubating for 4 hours, MTT was sucked out and removed, and […] dimethyl sulfoxide (DMSO) was added into each well. After incubating on the shaker for 30 minutes, […] of the sample was sucked out from each well and transferred into a 96-well culture dish. The absorbance of the sample was determined under the wavelength of 570 nm by an enzyme-linked immunosorbent assay (ELISA) reader.

[3] = tested on: lung cancer cells, breast cancer cells, and rectal cancer cells; settings: cited from earlier work
[4] = tested on: HepG2/A2; settings: cited from earlier work
[5] = tested on: p53 protein; settings: HepG2/A2 cells; cited from earlier work

Compound | Surface potential (mV) [1] [mV] | IC50 [2] [µg/mL] | cytotoxicity effects on lung, breast and rectal cancer cells [3] | cell cycle effect ([4]; accumulation of cyclin B1/cdc2 complex) | apoptosis markers (micronucleation, DNA fragmentation, caspase-3) [4] | effect on mitotic spindle (immunofluorescence staining) [4] | p53 protein activation [5]
COc1cc(/C=C2/C(=O)OC/C2=C/c2ccc3c(c2)OCO3)cc(OC)c1OC [KCY-Tai 2] | −11.8 | 0.7 (≈ 1.77 µM) | significant cytotoxicity effects |  |  |  | 
O=C1OCC(=C/c2ccc3c(c2)OCO3)/C1=C\c1ccc2c(c1)OCO2 [KCY-Tai 1] | −22.5 | 3 (≈ 8.56 µM) | significant cytotoxicity effects | arrested at G2/M phase | activation of caspase-3 | interrupt the formation of mitotic spindle | activation of p53 protein
